For data set [1], the system named is IL-2 production of T cells (Jurkat cells). Description: IL-2 production inhibitory activity (Jurkat cells stimulated with concanavalin A; IL-2 determined by CTLL-2 bioassay/MTT). It is filed as cell-based, human. Conditions: 24 hours. The protocol:
It is known that the immunosuppressant action of cyclosporins is based on inhibition of the IL-2 gene of T cells. Therefore, the biological activity of cyclosporins can be assayed using inhibition of the IL-2 production of T cells as an indicator. Accordingly, using Jurkat cells (a tumor cell line derived from human T cells), the biological activity of the compound of the invention was evaluated.
Jurkat cells grown to the logarithmic phase in RPMI-1640 medium (Flow Laboratories; 10% heat-inactivated FBS, 300 mg/l L-glutamine, 50 U/ml streptomycin, 50 U/ml penicillin, 25 mM Hepes, 50 µM 2-mercaptoethanol) were seeded onto a 96-well microtiter plate at a density of 8x10^5 cells/ml, 0.1 ml/well. Then, as an IL-2 production inducer, 10 µl of concanavalin A was added, followed by addition of 20 µl each of samples varying in concentration. After the final volume was adjusted to 0.2 ml/well with the medium, the plate was incubated in a CO2 incubator at 37°C for 24 hours. After completion of culture, the reaction mixture in each well was centrifuged (1000 rpm x 5 min.) and the supernatant was recovered.
Determination of IL-2 was carried out by the bioassay using CTLL-2 cells which are known as IL-2-dependent cells.
To 0.1 ml of CTLL-2 cells (40,000/ml) in logarithmic phase, 0.1 ml of an appropriate dilution of the above supernatant was added, and the cells were cultured in a CO2 incubator at 37°C for 48 hours. After completion of culture, the cell growth was determined by the MTT assay. The relation between growth of CTLL-2 cells and IL-2 concentration was previously plotted for a recombinant IL-2 and using the plots as a standard curve, the IL-2 concentration was estimated from the degree of growth of CTLL-2 cells.
The IL-2 production inhibition rate was calculated by means of the following equation (1) and the IC50 value of each sample was calculated from the inhibition rates at various concentrations. IL-2 production inhibition rate (%) = (1-(IL-2 production by cells in presence of sample)/(IL-2 production by cells in absence of sample)) x100 [formula]

The conditions of data set [2]: rat, in vivo.
Method: Nephrotoxicity was investigated by the lithium clearance method.
Each sample was adjusted to a concentration of 5 mg/ml and 2 ml/kg was administered intraperitonally for 7 consecutive days. The control group similarly received the solvent used for preparation of the sample solutions. […] On the following day the blood was drawn from the jugular vein and the animals were placed in metabolism cages. Under feeding with the lithium diet, the 24-hour urine was collected and the urine volume was measured using a measuring cylinder. After the rats were taken out from the metabolism cages, blood sampling was immediately carried out and the mean lithium value of two measurements before and after urine collection was taken as the blood lithium value of the corresponding rat. The body weight of rats was determined immediately after they were taken out from metabolism cages. To determine the blood lithium concentration, each blood sample was centrifuged at 3000 rpm for 10 minutes and the plasma was taken for determination. […] 24-hr CLi /100 g = urine volume x 100/rat body weight · urinary Li value/blood Li value [formula]
The next data set in a line: physchem. As to conditions: water.
Data set [3] can be described thus: Absorption after oral administration and release of the phosphate group (blood concentration by HPLC). As to conditions: SD rats, oral 30 mg/kg; for level at 0.5 h / level at 1 h / level at 2 h / level at 4 h / level at 8 h / level at 24 h: rat, blood, read-out: Blood concentration of the administered compound (unchanged). The class given is in vivo. Here is the method: Each blood sample was centrifuged (10,000 rpm x 5 min.) and the supernatant was applied onto a pretreatment column (Sep-Pack C18 Vac, Waters). After the column was rinsed with distilled water and 40% methanol, elution was carried out in 10% steps from 50% methanol to 100% methanol and 50 µl of the eluate was injected into an HPLC. From the concentration value thus found, the blood concentration was calculated.

In brackets after ≈: the same amount, converted by molar mass.

Method for physchem: From each test tube, 250 µl was taken into a centrifuge tube and centrifuged (10,000 rpm x 10 min.). The supernatant was recovered, diluted with distilled water, and subjected to HPLC for assay.
Column: Inertsil C8 (4.6x250 mm) Mobile phase: acetonitrile-methanol-distilled water-phosphoric acid (50:35:15:0.005) Column temperature: 75°C Detection: UV 210 nm

As for `C/C=C/C[C@@H](C)[C@@H](O)[C@H]1C(=O)N[C@@H]([C@@H](C)O)C(=O)N(C)CC(=O)N(C)[C@@H](CC(C)C)C(=O)N[C@@H](C(C)C)C(=O)N(C)[C@@H](CC(C)C)C(=O)N[C@@H](C)C(=O)N[C@H](C)C(=O)N(C)[C@@H](CC(C)C)C(=O)N(C)[C@@H](CC(C)C)C(=O)N(C)[C@@H](C(C)C)C(=O)N1C` [Cyclosporin C], in data set [1], the “IL-2 production inhibitory concentration (IC50 ng/ml)” value was 12 ng/mL. Further, the nephrotoxicity result in data set [2] is on record as “nephrotoxic”. For the same molecule, in “physchem”, the thermodynamic solubility at 30 min is 29.7 µg/mL (≈ 24.4 µM).

As for `C/C=C/C[C@@H](C)[C@@H](O)[C@H]1C(=O)N[C@@H](CC)C(=O)N(C)CC(=O)N(C)[C@@H](CC(C)C)C(=O)N[C@@H](C(C)C)C(=O)N(C)[C@@H](CC(C)C)C(=O)N[C@@H](C)C(=O)N[C@H](CO)C(=O)N(C)[C@@H](CC(C)C)C(=O)N(C)[C@@H](CC(C)C)C(=O)N(C)[C@@H](C(C)C)C(=O)N1C` [[D-serine^8]cyclosporin A, reference compound], the “IL-2 production inhibitory concentration (IC50 ng/ml)” value in data set [1] worked out at 6 ng/mL. Besides, in data set [3], the “Sum of blood concentrations up to 24 hr, administered compound (unchanged)” value is 8754 ng/mL. Moreover, in data set [3] (0.5 hr after administration), the level at 0.5 h worked out at 895 ng/mL. Also, the level at 1 h in data set [3] (1 hr after administration) amounted to 4320 ng/mL. The level at 2 h in data set [3] (2 hr after administration) was 1920 ng/mL. In data set [3] (4 hr after administration), the level at 4 h is 1020 ng/mL. Also, the level at 8 h in data set [3] (8 hr after administration) worked out at 533 ng/mL. Moreover, the level at 24 h in data set [3] (24 hr after administration) was determined as 69 ng/mL. For the same molecule, the solubility (thermodynamic) at 30 min in the data set “physchem” stood at 35.1 µg/mL (≈ 28.8 µM).

For the molecule `C/C=C/C[C@@H](C)[C@@H](O)[C@H]1C(=O)N[C@@H](CC)C(=O)N(C)CC(=O)N(C)[C@@H](CC(C)C)C(=O)N[C@@H](C(C)C)C(=O)N(C)[C@@H](CC(C)C)C(=O)N[C@@H](C)C(=O)N[C@H](COP(=O)(O)O)C(=O)N(C)[C@@H](CC(C)C)C(=O)N(C)[C@@H](CC(C)C)C(=O)N(C)[C@@H](C(C)C)C(=O)N1C` [[Phosphono-D-serine^8]cyclosporin A, [phosphono-D-serine^8]cyclosporin A], in data set [3], the “Sum of blood concentrations up to 24 hr, Sum of (2) and (3)” value stood at 13501 ng/mL; the “Sum of blood concentrations up to 24 hr, [D-serine^8]cyclosporin A which released phosphoric acid” value turned out to be 10448 ng/mL; the “Sum of blood concentrations up to 24 hr, administered compound (unchanged)” value worked out at 3053 ng/mL. In addition, in data set [3] (0.5 hr after administration), the “Blood concentration of [D-serine^8]cyclosporin A which released phosphoric acid” value was found to be 1413 ng/mL; the “Blood concentration, Sum of (2) and (3) (released plus unchanged compound)” value came to 1804 ng/mL; the level at 0.5 h was determined as 391 ng/mL. Also, in data set [3] (1 hr after administration), the “Blood concentration of [D-serine^8]cyclosporin A which released phosphoric acid” value is 3115 ng/mL; the “Blood concentration, Sum of (2) and (3) (released plus unchanged compound)” value is 3928 ng/mL; the level at 1 h was found to be 813 ng/mL. In data set [3] (2 hr after administration), the “Blood concentration of [D-serine^8]cyclosporin A which released phosphoric acid” value came to 2516 ng/mL; the “Blood concentration, Sum of (2) and (3) (released plus unchanged compound)” value came out at 3437 ng/mL; the level at 2 h amounted to 971 ng/mL. In data set [3] (4 hr after administration), the “Blood concentration of [D-serine^8]cyclosporin A which released phosphoric acid” value worked out at 2391 ng/mL; the “Blood concentration, Sum of (2) and (3) (released plus unchanged compound)” value amounted to 2927 ng/mL; the level at 4 h is 536 ng/mL. Also, in data set [3] (8 hr after administration), the “Blood concentration of [D-serine^8]cyclosporin A which released phosphoric acid” value amounted to 910 ng/mL; the “Blood concentration, Sum of (2) and (3) (released plus unchanged compound)” value was determined as 1221 ng/mL; the level at 8 h worked out at 311 ng/mL. In addition, in data set [3] (24 hr after administration), the “Blood concentration of [D-serine^8]cyclosporin A which released phosphoric acid” value came to 103 ng/mL; the “Blood concentration, Sum of (2) and (3) (released plus unchanged compound)” value was determined as 134 ng/mL; the level at 24 h stood at 31 ng/mL.

Turning to `C/C=C/C[C@@H](C)[C@@H](O)[C@H]1C(=O)N[C@@H]([C@@H](C)OP(=O)(O)O)C(=O)N(C)CC(=O)N(C)[C@@H](CC(C)C)C(=O)N[C@@H](C(C)C)C(=O)N(C)[C@@H](CC(C)C)C(=O)N[C@@H](C)C(=O)N[C@H](C)C(=O)N(C)[C@@H](CC(C)C)C(=O)N(C)[C@@H](CC(C)C)C(=O)N(C)[C@@H](C(C)C)C(=O)N1C` [[Phosphonothreonine^2]cyclosporin A, [phosphonothreonine^2]cyclosporin A], the “IL-2 production inhibitory concentration (IC50 ng/ml)” value in data set [1] was 49 ng/mL.

As usually defined, the solubility (thermodynamic) is solubility found after equilibrating the solid with the medium.
